Measured values taken from patent publication US11008325B2, “Inhibitors of cancer invasion, attachment, and/or metastasis” (VIRGINIA COMMONWEALTH UNIVERSITY, priority 2016, dated 2021).

Tests used:
GBM6 cells = assay: orthotopic GBM6 xenograft model; format: in vivo, mice
Experimental: FIGS. 13A-13E. Effect of PDZ1i on survival in an in vivo model of glioma. GBM6 cells were pretreated for 2 hrs prior to intracranial injection with vehicle (DMSO) or PDZ1i and after 7 days, brain tissue was isolated and sectioned at injection site. FIG. 13A, brain tissue at site of injection of DMSO treated cells; FIG. 13B, brain tissue are site of injection of PDZ1i treated cells. 7 days after tumor implantation, mice received either vehicle or PDZ1i (30 mg/kg) three times per week for 3 weeks. Brain tissue was isolated and analyzed via H&E stain, FIG. 13C, brain tissue from mice treated with vehicle; FIG. 13D, brain tissue from mice treated with PDZ1i. FIG. 13E, Kaplan-Myer curves of these groups based on animal survival. **p<0.01.
PDZ1i is effective in reducing tumor invasion in an animal model of GBM. To test the efficacy of PDZ1i, we used an orthotopic xenograft model with GBM6 cells that were pretreated with either DMSO or PDZ1i and injected intracranially to form tumors. Seven d post injection tumor and brain tissue were isolated for sectioning. […] Separately, untreated cells were injected and tumors established, then mice were treated IP with either DMSO or PDZ1i (30 mg/kg) three times per wk for two wk. […]

melanocytes = assay: toxicity to melanocytes; format: cell-based; details: tested up to 100 μM
U1242 cells = assay: Proteome Profiler Human Protease Array of conditioned media after radiation; format: cell-based; details: 50 μM PDZ1i 2 hrs prior to radiation
Experimental: FIGS. 10A-10L, PDZ1i inhibits key invasion proteins. U1242 cells were treated with either DMSO or 50 μM PDZ1i 2 hrs prior to radiation in serum-free media. After 48 hrs, media was collected analyzed via the Proteome Profiler Human Protease Array Kit (R&D Systems). Relative protein amounts of the indicated proteins were quantified via ImageJ. FIG. 10A, MMP1; FIG. 10B, MMP2; FIG. 10C, MMP3; FIG. 10D, MMP8; FIG. 10E, MMP9; FIG. 10F, MMP13; FIG. 10G. Cathepsin A; FIG. 10H, Cathepsin B; FIG. 10I, Cathepsin C; FIG. 10J, Cathepsin S; FIG. 10K, Cathepsin V; FIG. 10L, ASAM9.
Radiation can enhance the release of important enzymes, including those involved in invasion such as the matrix metalloproteinase family (MMP). We therefore determined if PDZ1i could affect the secretion of invasion-related proteins following radiation therapy. U1242 cells were treated for 2 hours prior to radiation therapy, and their media collected after 48 hours. […]
CM was harvested from an overnight culture of plated cells in serum-free DMEM+F12 media, filtered with […] filters and further concentrated 10-fold on an Amicon Ultra centrifugal filter—3K (Millipore, Billerica, Mass.). Protein levels were analyzed via the Proteome Profiler Human Protease Array Kit (R&D Systems, Minneapolis, Minn.). Relative quantification was performed by densitometry evaluation. X-ray films were scanned and analyzed with ImageJ software (NIH).

For `Cc1cc(NC(=O)c2nc3[nH]c4c(c(=O)n3n2)CCC4)c(C)cc1NC(=O)CCc1nnc(-c2ccccc2)o1` [113B7, N-(2,5-dimethyl-4-(3-(5-phenyl-1,3,4-oxadiazol-2-yl)propanamido)phenyl)-8-oxo-5,6,7,8-tetrahydro-4H-cyclopenta[d][1,2,4]triazolo[1,5-a]pyrimidine-2-carboxamide], which survival (GBM6 cells; PDZ1i 30 mg/kg IP three times per wk) is on record?
Its survival is “significantly increased”.

What about the “tumor size and demarcation” value (GBM6 cells; cells pretreated with PDZ1i, 7 d post intracranial injection) of the same compound?
Its value is “noticeably smaller and more demarcated neoplasms”.

What about the toxicity to melanocytes (melanocytes) of the same compound?
Its toxicity to melanocytes is “did not show any significant toxicity”.

What about the “radiation gains in Cathepsin family members and ADAM9” value (U1242 cells) of the same compound?
Its value is “eliminated these gains”.

What about the “secreted MMP levels (MMP2, MMP9) after radiation” value (U1242 cells; media after 48 hrs) of the same compound?
The value was “reduced the levels”.
